We go through two compounds from US20090203701A1, “PROPHYLACTIC AND/OR THERAPEUTIC AGENT FOR RHEUMATOID ARTHRITIS” (KOWA CO., LTD, priority 2006, published 2009).

In the test the test system is rat collagen-induced arthritis model. In words: Edema suppression in both hindlimbs, rat collagen-induced arthritis model. In kind it is in vivo. On the set-up: key to Edema Index: sum of both hindlimb edema volumes on days 14, 18, 22, 26. The note with it: for Relative index: control group = 1.000; for Edema Index: average ± standard error. On the procedure:
For the cases of combined administration and respective single drug administrations of 2-benzyl-5-(4-chlorophenyl)-6-[4-(methylthio)phenyl]-2H-pyridazin-3-one and atorvastatin calcium hydrate, the effect of edema suppression in both hindlimbs was determined by the following method (rat collagen-induced arthritis model) (FDA, CBER, CDER, CDRH: Guidance for industry—Clinical development programs for drugs, devices, and biological products for the treatment of rheumatoid arthritis (RA)—.(1999)).
For the test animal, female Lewis rats (LEW/Crj) (obtained from Charles River Laboratories Japan, Inc.) were used.
For each 8-week-old LEW/Crj rat, the volume of a portion from the ankle to the toe tip of both hindlimbs (hereinafter, both hindlimbs volume) was measured by means of a plethysmometer for small animals (TK-101CMP, product of Unicom), and the total volume was taken as the both hindlimbs volume upon initiation of test (hereinafter, Pre value). This Pre value was used as an index to divide the rats into groups by randomized block design by the single variable, so that the values in the respective groups averaged out.
The collagen emulsion for sensitization that was used to induce arthritis in rats, was prepared by homogenizing a 0.3% Type II collagen solution (Collagen Research Center), Adjuvant Peptide (Peptide Institute, Inc.) and Adjuvant Incomplete Freund (DIFCO), using a Handy Micro Homogenizer (Microtec Nition, Co., Ltd.) under ice-cooling. The collagen emulsion thus prepared was intracutaneously administered at 10 sites in the back of each rat at a dose of 0.1 mL/site, to perform initial sensitization of the rat. Seven days after the initial sensitization, 0.12 mL of the same collagen emulsion was intracutaneously administered to the root of tail in each rat, to perform booster sensitization.
Drug administration was conducted from the day after the initial sensitization through 26 days thereafter. The group for sole administration of 2-benzyl-5-(4-chlorophenyl)-6-[4-(methylthio)phenyl]-2H-pyridazin-3-one (Drug A) was orally administered with the drug at 3 mg/kg, twice a day, in the morning (9:00 to 11:00) and in the evening (15:30 to 17:30). The group for sole administration of atorvastatin calcium hydrate (Drug B1) was orally administered with the drug at 30 or 100 mg/kg, once a day, in the afternoon (11:30 to 13:30). On the other hand, the group for combined administration of Drug A and Drug B1 was orally administered with Drug A at 3 mg/kg in the morning (9:00 to 11:00) and in the evening (15:30 to 17:30), and with Drug B1 at 30 or 100 mg/kg in the afternoon (11:30 to 13:30).
14, 18, 22 and 26 days after the initial sensitization, the both hindlimbs volume was measured again for each rat, and the difference between each of the values and the Pre value was determined to calculate the edema volume for both hindlimbs. The sum of the edema volumes for both hindlimbs measured 14, 18, 22 and 26 days after the initial sensitization was calculated as Edema Index, and this was taken as an index for the effects of the drugs.
Table 1 and FIG. 1 present the Edema Indices of the group for sole administration of 3 mg/kg of Drug A, the group for sole administration of 30 mg/kg of Drug B1, and the group for combined administration of both drugs. Furthermore, Table 2 and FIG. 2 present the Edema Indices of the group for sole administration of 3 mg/kg of Drug A, the group for sole administration of 100 mg/kg of Drug B1, and the group for combined administration of both drugs. The Edema Index is expressed in the average value±standard error of 8 rats in each group. Furthermore, the decrease rate is indicated as ((X−Y)/X)×100 (X: average Edema Index for control group, Y: average Edema Index for each group)

For `CC(C)c1c(C(=O)Nc2ccccc2)c(-c2ccccc2)c(-c2ccc(F)cc2)n1CC[C@@H](O)C[C@@H](O)CC(=O)O` [Drug B1, atorvastatin calcium hydrate], the Relative index by setting is: (Table 1 experiment, sole Drug B1 30 mg/kg orally once a day) 1.086; (Table 2 experiment, sole Drug B1 100 mg/kg orally once a day) 1.060. For the same compound, the “Decrease rate (%)” value is given as −8.6% (Table 1 experiment, sole Drug B1 30 mg/kg orally once a day, vs control group) and −6.0% (Table 2 experiment, sole Drug B1 100 mg/kg orally once a day, vs control group). Moreover, the “Edema Index” value worked out at 6.07 ± 0.30 (Table 1 experiment, sole administration of Drug B1 30 mg/kg orally once a day, day 1-26) and 6.57 ± 0.31 (Table 2 experiment, sole administration of Drug B1 100 mg/kg orally once a day, day 1-26). Moreover, the “Effects on edema (Edema Index), in words” value (sole Drug B1 at the doses of 30 and 100 mg/kg) was “did not show any effects on edema”.

Turning to `CSc1ccc(-c2nn(Cc3ccccc3)c(=O)cc2-c2ccc(Cl)cc2)cc1` [Drug A, 2-benzyl-5-(4-chlorophenyl)-6-[4-(methylthio)phenyl]-2H-pyridazin-3-one], the Relative index reads like this: (Table 1 experiment, sole Drug A 3 mg/kg orally twice a day) 0.935; (Table 2 experiment, sole Drug A 3 mg/kg orally twice a day) 0.790. Besides, the “Decrease rate (%)” value was found to be 6.5% (Table 1 experiment, sole Drug A 3 mg/kg orally twice a day, vs control group Edema Index) and 21.0% (Table 2 experiment, sole Drug A 3 mg/kg orally twice a day, vs control group). Also, the “Edema Index” value reads like this: (Table 1 experiment, sole administration of Drug A 3 mg/kg orally twice a day, day 1-26 after initial sensitization, sum of edema volumes on days 14, 18, 22, 26) 5.23 ± 0.45; (Table 2 experiment, sole administration of Drug A 3 mg/kg orally twice a day, day 1-26) 4.89 ± 0.57.
